Experimental data from US3984548A, “Substituted pyrido[1,2,3,-de]-1,4-benzoxazines as bactericides” (Riker Laboratories, Inc., priority 1974, dated 1976).

Legend:
Assay type in all cases: cell-based
Set-up in all cases: key: +: active; -: inactive
Details in all cases: agar plates, 1 to 100 milligrams/liter
Staphylococcus aureus = test: standard plate dilution method, Staphylococcus aureus
Experimental: (§1) The culture medium employed permits susceptibility testing of fastidious microorganisms towards antibiotics, sulfonamides and other chemotherapeutic agents. Tryptone soy agar (oxoid) of the following composition is the culture medium. In the test procedure, the amount of a compound required to give complete inhibition or no inhibition of the microbial growth on the agar plates was determined. The compound selected for evaluation is added to the agar medium to give concentrations of one, ten and one hundred milligrams per liter. A series of plates with these concentrations is prepared. Plates containing agar alone are included as controls. Ten percent horse serum is added to one series of such plates. Aliquots of broth culture of each of nine species of microorganisms are innoculated onto the agar plates containing the various compound concentrations and onto the control plates. The plates are incubated at 37° C. in a 10 percent carbon dioxide atmosphere for 18 to 25 hours. The microbial growth on each plate is read visually, and minimal inhibitory concentrations are recorded.

Escherichia coli = test: standard plate dilution method, Escherichia coli
Experimental: as §1

Bacillus Subtilus = test: standard plate dilution method, Bacillus subtilus
Experimental: as §1

Mima polymorpha = test: standard plate dilution method, Mima polymorpha
Experimental: as §1

Herellea vaginicola = test: standard plate dilution method, Herellea vaginicola
Experimental: as §1

Streptococcus Sp = test: standard plate dilution method, Streptococcus sp.
Experimental: as §1

Pseudmonas aeruginosa = test: standard plate dilution method, Pseudomonas aeruginosa
Experimental: as §1

Structure (SMILES)	Microorganism SA (growth inhibition) (Staphylococcus aureus)	Microorganism EC (growth inhibition) (Escherichia coli)	Microorganism BS (growth inhibition) (Bacillus Subtilus)	Microorganism MP (growth inhibition) (Mima polymorpha)	Microorganism HV (growth inhibition) (Herellea vaginicola)	Microorganism SS (growth inhibition) (Streptococcus Sp)	Microorganism PA (growth inhibition) (Pseudmonas aeruginosa)
CC1COc2ccc([N+](=O)[O-])c3c(=O)c(C(=O)O)cn1c23 (centres unmarked) [Example 44, 2,3-dihydro-3-methyl-8-nitro-7-oxo-7H-pyrido[1,2,3-de]-1,4-benzoxazine-6-carboxylic acid]	+	+	+	-	+	-	-
CCOC(=O)c1cn2c3c(c(Cl)cc(C)c3c1=O)OCC2C (centres unmarked) [Example 37 (ester)]	-	-	+	-	-	-	-
CCOC(=O)c1cn2c3c(cc(C)cc3c1=O)OCC2C (centres unmarked) [Example 1, ethyl 2,3-dihydro-3,9-dimethyl-7-oxo-7H-pyrido[1,2,3-de]-1,4-benzoxazine-6-carboxylate]	+	+	+	-	+	-	-
Cc1ccc2c3c1c(=O)c(C(=O)O)cn3C(C)CO2 (centres unmarked) [Example 26, 8-methyl-2,3-dihydro-3-methyl-7-oxo-7H-pyrido[1,2,3-de]-1,4-benzoxazine-6-carboxylic acid]	+	+	+	-	+	+	-
CCOC(=O)c1cn2c3c(c(C)c(Cl)cc3c1=O)OCC2C (centres unmarked) [Example 34 (ester)]	+	+	+	+	+	+	+
CCOC(=O)c1cn2c3c(c(C)cc(Cl)c3c1=O)OCC2C (centres unmarked) [Example 41 (ester)]	+	+	+	-	+	-	-
CCOC(=O)c1cn2c3c(cc(F)cc3c1=O)OCC2C (centres unmarked) [Example 6, ethyl 2,3-dihydro-9-fluoro-3-methyl-7-oxo-7H-pyrido[1,2,3-de]-1,4-benzoxazine-6-carboxylate]	+	+	+	-	+	-	+
CC1COc2c(Cl)cc([N+](=O)[O-])c3c(=O)c(C(=O)O)cn1c23 (centres unmarked) [Example 38 (acid)]	+	+	+	-	+	-	-
CC1COc2cccc3c(=O)c(C(=O)O)cn1c23 (centres unmarked) [Example 19, 2,3-dihydro-3-methyl-7-oxo-7H-pyrido[1,2,3-de]-1,4-benzoxazine-6-carboxylic acid]	+	+	+	-	+	-	-
Cc1cc2c3c(c1)c(=O)c(C(=O)O)cn3C(C)CO2 (centres unmarked) [Example 16, 2,3-dihydro-3,9-dimethyl-7-oxo-7H-pyrido[1,2,3-de]-1,4-benzoxazine-6-carboxylic acid]	+	+	+	-	+	+	-
COc1cc2c3c(c1)c(=O)c(C(=O)O)cn3C(C)CO2 (centres unmarked) [Example 20, 2,3-dihydro-9-methoxy-3-methyl-7-oxo-7H-pyrido[1,2,3-de]-1,4-benzoxazine-6-carboxylic acid]	+	+	+	-	+	-	-
CC1COc2cc(Cl)cc3c(=O)c(C(=O)O)cn1c23 (centres unmarked) [Example 23, 9-chloro-2,3-dihydro-3-methyl-7-oxo-7H-pyrido[1,2,3-de]-1,4-benzoxazine-6-carboxylic acid]	+	+	+	-	+	+	-
CCOC(=O)c1cn2c3c(cc(Cl)cc3c1=O)OCC2C (centres unmarked) [Example 4, ethyl 9-chloro-2,3-dihydro-3-methyl-7-oxo-7H-pyrido[1,2,3-de]-1,4-benzoxazine-6-carboxylate]	+	+	+	-	+	-	-
CC1COc2c(Cl)ccc3c(=O)c(C(=O)O)cn1c23 (centres unmarked) [Example 22, 10-chloro-2,3-dihydro-3-methyl-7-oxo-7H-pyrido[1,2,3-de]-1,4-benzoxazine-6-carboxylic acid]	+	+	+	+	+	+	+
CC1COc2c(F)ccc3c(=O)c(C(=O)O)cn1c23 (centres unmarked) [Example 21, 2,3-dihydro-10-fluoro-3-methyl-7-oxo-7H-pyrido[1,2,3-de]-1,4-benzoxazine-6-carboxylic acid]	+	+	+	-	+	+	-
CCOC(=O)c1cn2c3c(c(C)ccc3c1=O)OCC2C (centres unmarked) [Example 39 (ester)]	-	+	-	-	-	+	+
CCOC(=O)c1cn2c3c(c(C)cc(C)c3c1=O)OCC2C (centres unmarked) [Example 42 (ester)]	-	-	+	-	-	-	-
